Laboratory results: patent US20070026051A1, “Use of tripolidine in providing refreshedness on waking” (priority 2003, published 2007)

Key:
[1] = system: patients with temporary sleep disturbance; test: Clinical trial: wrist actimetry (SDI, time to sleep onset); type: in vivo, human; parameters: SDI compared to placebo: dose or concentration left out as unconfirmed
Excerpt: The efficacy of triprolidine in enabling a patient to feel refreshed or alert upon waking after taking triprolidine prior to sleeptime was investigated using patients with a history of sleep disorders and utilising triprolidine prepared in accordance with example 1.
(§1) The study herein utilised the following determination methods:— • (a) Karolinska scale as defined in: Int. J. Neuroscience 52 29-37 (1990); and—validation: Sleep 17 (3) 236-41 (1994) • (b) Loughborough Sleep log as defined in: Sleep 17 (2) 146-159 (1994); and • Sleep 18 (2) 127-134 (1995) • (c) Actimetry—AW4 actimeters (Cambridge Neurotechnology) were worn continuously throughout the study. A button was pressed at night when the subject desired to go to sleep and again in the morning upon waking. The results of the actimeter study were analysed in the manner defined by Horne et al (Sleep, 17(2); 146-159). SDI % was calculated as follows:— SDI=Number of 30 second epochs with movement×100 • Number of 30 second epochs from total time spent in bed This is the measure of: • 1. The length of time it took to fall asleep • 2. Any awakenings throughout the sleep period • Expressed as a % of total time spent in bed. Study Objectives • To evaluate the effects of two doses of triprolidine compared with placebo. Study Design […]
Male and Female candidates aged 18 years and above were recruited to one of five research centres by means of local advertising. […]
In the trial, patients were tested during a seven day period and the results have been analysed for a mean of three days in the middle of this period. […]
(§2) Generally the treatment groups were well balanced in terms of the demographic data. Unless otherwise mentioned all group data was analysed using ANOVA. In two cases, namely, how the patient felt 15 minutes after awakening in the Loughborough Sleep Log and the Karolinska Sleepiness Scale at 20 minutes, the two variables were analysed using ANCOVA by including the weekend and the mean of Friday/Saturday/Sunday night as a covariate. […]

[2] = system: patients with temporary sleep disturbance; test: Clinical trial: Loughborough sleep log (subjective); type: in vivo, human; parameters: dose or concentration left out as unconfirmed; conditions: mean of the 3 nights, p<0.05
Excerpt: as §1
Candidates were required to complete a questionnaire 15 minutes after awaking on the feeling of refreshedness assessed on a 5-point scale, the Loughborough sleep log.
Generally the treatment groups were well balanced in terms of the demographic data. Unless otherwise mentioned all group data was analysed using ANOVA. […]

[3] = system: patients with temporary sleep disturbance; test: Clinical trial: Karolinska 9-point sleepiness scale; type: in vivo, human
Excerpt: The study herein utilised the following determination methods:— • (a) Karolinska scale as defined in: Int. J. Neuroscience 52 29-37 (1990); and—validation: Sleep 17 (3) 236-41 (1994) • (b) Loughborough Sleep log as defined in: Sleep 17 (2) 146-159 (1994); and • Sleep 18 (2) 127-134 (1995) • (c) Actimetry—AW4 actimeters (Cambridge Neurotechnology) were worn continuously throughout the study. A button was pressed at night when the subject desired to go to sleep and again in the morning upon waking. The results of the actimeter study were analysed in the manner defined by Horne et al (Sleep, 17(2); 146-159). SDI % was calculated as follows:— SDI=Number of 30 second epochs with movement×100 • Number of 30 second epochs from total time spent in bed This is the measure of: • 1. The length of time it took to fall asleep • 2. Any awakenings throughout the sleep period • Expressed as a % of total time spent in bed. Study Objectives • To evaluate the effects of two doses of triprolidine compared with placebo. Study Design
A multiple-dose, placebo-controlled, parallel-group, double-blind, randomised study investigating the effects of 2.5 mg and 5 mg triprolidine in patients with temporary sleep disturbance.
Male and Female candidates aged 18 years and above were recruited to one of five research centres by means of local advertising. Candidates were screened by means of a telephone questionnaire and selected candidates invited for interview at the research centre. Key inclusion criteria used to select candidates for the study were: • A record of poor sleep at least 2 nights per week • A record of poor sleep for at least 1 week but not more than 3 months • Sleep disturbance not caused by underlying disease • No excess use of alcohol or drugs • Sleep disturbance affected daytime functioning
The candidates came to the research centre on Thursday or Friday and were fitted with a wrist actimeter (AW4 from Cambridge Technology) to establish a baseline measure for SDI and were provided with diary cards to record subjective assessments for the Loughborough Sleep Log and the Karolinska Sleepiness Scale. They returned to the investigational site on the Monday and were issued with the study compositions (2.5 mg triprolidine, 5 mg triprolidine or placebo). […]
as §2

volunteers = conditions: single doses 10 mg or 20 mg sustained release at bedtime; cited from earlier work
[4] = both treatments (2.5 mg and 5 mg), every treatment night
[5] = 2.5 mg triprolidine, mean of the 3 nights

For `Cc1ccc(/C(=C\CN2CCCC2)c2ccccn2)cc1` [triprolidine], the “SDI as compared with placebo” value [1, 4] was “reduced”, the “sleep latency onset as compared with placebo” value [1, 4] was “reduced” and the “SDI compared to placebo” value ([1]; triprolidine, mean of the 3 nights, p<0.01) was “significantly reduced”. The “feeling of refreshedness 15 minutes after waking vs placebo (Loughborough sleep log)” value [2] was “more refreshed”, the “percentage of people feeling alert, very alert or extremely alert on waking vs placebo (Karolinska log)” value [3, 5] was “greater percentage” and the “percentage of people feeling sleepy, some effort, or very sleepy, great effort to keep awake on waking vs placebo (Karolinska log)” value [3, 5] was “lower percentage”. For the same molecule, the “residual hangover effects/morning grogginess” value [3, 5] was “no evidence of residual hangover effects/morning grogginess”, the daytime sleepiness ([3]; either dose of triprolidine) was “lack of daytime sleepiness” and the “sleep onset latency (time required to fall asleep) compared with placebo” value (volunteers) was “did not significantly alter”. The “total sleep time compared with placebo” value (volunteers) was “no effect” and the “wakefulness during sleep compared with placebo” value (volunteers) was “no effect”.
